Source: patent US20250025438A1, “Derivative of aspartic acid and use thereof in treatment of metabolic diseases such as hepatic fibrosis and non-alcoholic hepatitis” (SHENZHEN JINGTAI TECHNOLOGY CO., LTD., priority 2021, published 2025)
Where a name gives a salt, the structure may show the parent alone.

Key:
Type in all cases: cell-based
COL1A1 = assay: In vitro efficacy in semi-activated LX2 cells, qPCR: COL1A1; conditions: Homo sapiens, LX-2, 50 µM, 48 hours, Q-PCR, read-out: COL1A1 mRNA inhibition rate
Smad3 = assay: In vitro efficacy in semi-activated LX2 cells, qPCR: Smad3; conditions: 48 hours, Q-PCR; for inhibition of the expression of Smad3 at the mRNA level: Table 2; for inhibition at 50 µM: Homo sapiens, LX-2, 50 µM, read-out: Smad3 mRNA inhibition rate
Outline: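 LX-2 human hepatic stellate cells were plated, allowed to adhere for 12 hours, then exposed to test compound at 50 µM for 48 hours. Total RNA was extracted, reverse-transcribed to cDNA, and target mRNA quantified by SYBR Green qPCR using the relative quantification method.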

COL3A1 = assay: In vitro efficacy in semi-activated LX2 cells, qPCR: COL3A1; conditions: Homo sapiens, LX-2, 50 µM, 48 hours, Q-PCR, read-out: COL3A1 mRNA inhibition rate
[1] = system: liver fibrosis-related genes; assay: Semi-activated LX2 cells, qPCR: liver fibrosis-related genes overall; conditions: 48 hours, Q-PCR, Table 2
Experimental: (§1) Test compounds were added to the LX-2 cells respectively, and total RNA in the cells was extracted 48 hours later. This experiment was performed strictly in accordance with the instructions of the Total RNA Kit. The steps were as follows (note: this experiment was performed on ice throughout the entire process, and special RNase-free tips were used throughout the entire process): • 1) The 12-well cell culture plate was taken out from the incubator, the cell culture medium was discarded, the cells were washed twice with 1 mL of 1×PBS, and a negative pressure suction device was used to fully remove PBS; • 2) 350 μL of TRK Lysis Buffer mixture/well was prepared as needed (mixture preparation method: 1 mL of TRKLysis Buffer+20 μL of β-mercaptoethanol), vortexed and mixed well. 350 μL was added to each well of the 12-well cell culture plate, and allowed to stand at room temperature for 5 minutes to fully lyse the cells; • 3) 70% ethanol/well was prepared as needed, vortexed and mixed well. 350 μL was added to each well of the 12-well cell culture plate, mixed well by shaking, and transferred to the spin column (spin column+collection tube were assembled); • 4) Centrifugation was performed at 4° C., 12000 g for 60 sec. The waste liquid was discarded after centrifugation, while the spin column was kept; • 5) 500 μL of RNA Wash Buffer I was added, centrifuged at 4° C., 12000 g for 60 sec, the waste liquid was discarded after centrifugation, and the collection column was kept; • 6) 500 μL of RNA Wash Buffer II (confirmed that ethanol had been added) was added, centrifuged at 4° C., 12000 g for 60 sec, the waste liquid was discarded after centrifugation, and the collection column was kept; • 7) step 6) was repeated once again, centrifugation was performed at 4° C., 12000 g for 90 sec, the waste liquid was discarded after centrifugation, and the collection column was kept; • 8) Centrifugation was performed at 4° C., 12000 g for 120 sec to ensure that the spin column was fully dried; • 9) The dried spin column was inserted into a new 1.5 mL EP tube, and 30 μL of DEPC water was added to the membrane in the center of the spin column. It should be careful not to touch the EP tube cover in this step. It was allowed to stand at room temperature for 5 minutes to ensure that the RNA was fully dissolved in DEPC water. Centrifugation was performed at 4° C., 12000 g for 60 sec, and the EP tube was kept; • 10) NanoDrop ultra-micro-volume spectrophotometer was used to detect RNA concentration;
(§2) 5.3 Q-PCR detection of target gene expression: According to the instructions of Power SYBR® Green PCR Master Mix, the specific operations were as follows:
LX2 cells were passaged and plated normally. After adherent growth for 12 hours, 50 µM of the test compound was added. After 48 hours, the cells were collected, total RNA was extracted, and Q-PCR was used to detect the changes in the mRNA expression levels of liver fibrosis-related genes (ACTA2 encoding α-SMA, COL1A1 and COLIA2 encoding collagen I, COL3A1 encoding collagen III, SMAD3 encoding Smad3) and inflammation-related genes (IL1β encoding IL-1β, TNFα encoding TNFα) (for specific methods, see 5. Q-PCR detection of target gene expression as described above). α-SMA was a marker of hepatic stellate cell activation, and collagen I and collagen III were the main components of extracellular matrix deposition.

TNF-α = assay: In vitro efficacy in semi-activated LX2 cells, qPCR: TNF-α; conditions: Homo sapiens, LX-2, 48 hours, Q-PCR, read-out: TNF-α mRNA inhibition rate
[2] = system: collagen I and collagen III; assay: Semi-activated LX2 cells, qPCR: collagen I and collagen III at the mRNA level; conditions: 48 hours, Q-PCR, Table 2
Outline: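 LX-2 human hepatic stellate cells, adhered 12 h, were treated with 50 µM test compound for 48 h. Total RNA was extracted, and COL1A1, COL1A2 and COL3A1 mRNA were measured by SYBR Green qPCR.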

NS3TP1 = assay: Regulation of NS3TP1 in semi-activated LX2 cells, qPCR; conditions: LX-2 cells, 48 hours, Q-PCR, vs control group
Experimental: as §1
5.2 Reverse transcription of RNA into cDNA: According to the instructions of PrimeScript™ RT reagent Kit (Perfect Real Time), the specific experimental steps were as follows:
as §2
After the reaction was completed, the amplification curve and dissolution curve of Q-PCR were confirmed, and the relative quantification method ([…]) was used to perform data analysis on the experimental results.
LX2 cells were passaged and plated normally. […] After 48 hours, the cells were collected, total RNA was extracted, and the expression of NS3TP1 gene was detected using Q-PCR method.

| SMILES | inhibition at 50 µM (COL1A1) | inhibition of the expression of Smad3 at the mRNA level (Smad3) | inhibition at 50 µM (Smad3) | inhibition at 50 µM (COL3A1) | inhibition of the mRNA expression levels of liver fibrosis-related genes (overall) [1] | inhibition at 50 µM (TNF-α) | inhibition of the expression of collagen I and collagen III at the mRNA level [2] | Up-regulation of NS3TP1 (NS3TP1; test concentration 10 mM) | Up-regulation of NS3TP1 (NS3TP1; 200 µM compound) |
| --- | --- | --- | --- | --- | --- | --- | --- | --- | --- |
| COC(=O)[C@@H](N)CC(=O)O [Compound 4] | 25 to 50% | could inhibit | 25 to 50% | 25 to 50% | stronger effects | 25 to 50% | could inhibit | B (B represented that the up-regulation was 20~40%) |  |
| COC(=O)C[C@H](N)C(=O)O [Compound 6] | 25 to 50% | could inhibit | 25 to 50% | 25 to 50% | stronger effects | 10 to 25% | could inhibit |  | A (A represented that the up-regulation was 40% or above) |
| N[C@@H](CCC(=O)O)C(=O)O [Compound 47] | 25 to 50% |  | 1 to 10% | 10 to 25% | stronger effects | 10 to 25% | could inhibit |  |  |
| COC(=O)C[C@H](N)C(=O)OCOC(=O)[C@@H](N)CC(=O)OC [Compound 54, 4-dimethyl O′1,01-methylene (2S,2'S)-bis (2-aminosuccinate) hydrochloride] | 25 to 50% |  |  | 10 to 25% | stronger effects | 1 to 10% | could inhibit |  | A (A represented that the up-regulation was 40% or above) |
